“Also recorded” adds a separate entry of the source.
Columns and labels:
[1] = tested on: pinacidil induced DMR signal in HepG2C3A cells; test: Label-free RWG biosensor DMR assay, modulation of the pinacidil induced DMR signal; type: cell-based, human; details: pre-incubation with compound, pinacidil 40 μM
Description: Transfection of siRNAs was performed using N-TER Nanoparticle siRNA Transfection System (Cat#N2913) from Sigma-Aldrich Inc. following the manufacturer's instructions. Briefly, 5000 cells were plated in each well of Epic 384-well plates. Cells were transfected with 50 nM siRNA the next day and incubated in siRNA containing medium for 24 hrs before replaced with fresh cell culture medium. Epic cell assay was performed 48 hours after transfection.
(§1) Epic® wavelength interrogation system (Corning Inc., Corning, N.Y.) was used for whole cell sensing. This system consists of a temperature-control unit, an optical detection unit, and an on-board liquid handling unit with robotics. The detection unit is centered on integrated fiber optics, and enables kinetic measures of cellular responses with a time interval of ˜15sec. The compound solutions were introduced by using the on-board liquid handling unit (i.e., pippetting).
The RWG biosensor is capable of detecting minute changes in local index of refraction near the sensor surface. Since the local index of refraction within a cell is a function of density and its distribution of biomass (e.g., proteins, molecular complexes), the biosensor exploits its evanescent wave to non-invasively detect ligand-induced dynamic mass redistribution in native cells. The evanescent wave extends into the cells and exponentially decays over distance, leading to a characteristic sensing volume of ˜150 nm, implying that any optical response mediated through the receptor activation only represents an average over the portion of the cell that the evanescent wave is sampling. The aggregation of many cellular events downstream the receptor activation determines the kinetics and amplitudes of a ligand-induced DMR.
For biosensor cellular assays, compound solutions were made by diluting the stored concentrated solutions with the HBSS (1× Hanks balanced salt solution, plus 20 mM Hepes, pH 7.1), and transferred into a 384well polypropylene compound storage plate to prepare a compound source plate. Two compound source plates were made separately when a two-step assay was performed. In parallel, the cells were washed twice with the HBSS and maintained in 30 μl of the HBSS to prepare a cell assay plate. Both the cell assay plate and the compound source plate(s) were then incubated in the hotel of the reader system. After incubation the baseline wavelengths of all biosensors in the cell assay microplate were recorded and normalized to zero. Afterwards, a 2 to 10 min continuous recording was carried out to establish a baseline, and to ensure that the cells reached a steady state. Cellular responses were then triggered by transferring 10 μl of the compound solutions into the cell assay plate using the on-board liquid handler.
All studies were carried out under controlled temperature (28° C.). At least two independent sets of experiments, each with at least three replicates, were performed.

[2] = tested on: mito-KATP channels in HepG2C3A cells; test: Label-free RWG biosensor (Epic) DMR cellular assay, agonism mode; type: cell-based, human; details: 28° C.
Description: as §1
The RWG biosensor is capable of detecting minute changes in local index of refraction near the sensor surface. Since the local index of refraction within a cell is a function of density and its distribution of biomass (e.g., proteins, molecular complexes), the biosensor exploits its evanescent wave to non-invasively detect ligand-induced dynamic mass redistribution in native cells. […]
For biosensor cellular assays, compound solutions were made by diluting the stored concentrated solutions with the HBSS (1× Hanks balanced salt solution, plus 20 mM Hepes, pH 7.1), and transferred into a 384well polypropylene compound storage plate to prepare a compound source plate. […] Both the cell assay plate and the compound source plate(s) were then incubated in the hotel of the reader system. After incubation the baseline wavelengths of all biosensors in the cell assay microplate were recorded and normalized to zero. […]

Row | Structure (SMILES) | effect on the pinacidil induced DMR signal [1] | pinacidil induced DMR signal (amplitudes and kinetics) [2]
1 | C[C@@H](N)[C@H]1CC[C@H](C(=O)Nc2ccncc2)CC1 [Y-27632] | reduced the pinacidil induced DMR signal dose-dependently | 
2 | C=C1[C@@H](C)[C@H]2[C@H](Cc3ccccc3)NC(=O)[C@]23OC(=O)/C=C/[C@H](O)CCC[C@@H](C)C/C=C/[C@H]3[C@@H]1O [cytochalasin B] | dose-dependently reduce | 
3 | N#C/C(=C/c1ccc(O)c(O)c1)C(=O)NCc1ccccc1 [AG490] | dose-dependently reduced | 
4 | C1CCC(N=C(NC23CC4CC(CC(C4)C2)C3)N2CCOCC2)CC1.Cl [U-37883A] | no effect | 
5 | C/C1=C/C(=O)O[C@@H]2C[C@@H](CC[C@H](C)/C=C\C=C\CC1)O[C@@](O)([C@@H]1CSC(=O)N1)C2 [latrunculin A] | dose-dependently reduce | 
6 | CC(N/C(=N\C#N)Nc1ccncc1)C(C)(C)C (centres unmarked) [pinacidil] |  | robust; also recorded: concentration dependent
7 | Cc1ccc(S(=O)(=O)NC(=O)NN2CCCCCC2)cc1 [tolazamide] | dose-dependent inhibition; also recorded: dose-dependently inhibited | 
8 | CCCCNC(=O)NS(=O)(=O)c1ccc(C)cc1 [tobutamide] | dose-dependently inhibited | 
